# Results as given in patent US20240335439A1, “USE OF AND METHOD FOR TELAPREVIR IN PREPARATION OF DRUG FOR TREATING AN ISCHEMIA/REPERFUSION INJURY AND CYTOPROTECTIVE DRUG” (THE THIRD XIANGYA HOSPITAL OF CENTRAL SOUTH UNIVERSITY, priority 2021, published 2024).
# Legend:
# [1] = tested on: Alzheimer's disease mouse models; test: Alzheimer's disease mouse model (Aβ1-42 into hippocampus), Morris water maze experiment; format: in vivo, ICR mice; settings: telaprevir 40 mg/kg intramuscular daily for 17 days, #P<0.05 vs AD+vehicle
# Procedure: Experimental animals: 7-week-old healthy male ICR mice weighing 25-30 g. The experimental animals were raised for one week in an environment with a temperature of 25° C., a relative humidity of 60%, free drinking water, and timed and quantified feeding, and then administered according to the requirements of each experimental group.
# Building of an Alzheimer's disease mouse model and drug treatment: Aβ1-42 was purchased from MCE Reagent Company, dissolved in DMSO, diluted with physiological saline to 2 μg/μL, and incubated in an incubator at 37° C. for 7 days to convert the Aβ1-42 into an aggregated state. […]
# A learning and memory ability and cognitive function of mice were detected by a Morris water maze experiment and a new/old object recognition experiment.
# According to the requirements of the water maze experiment, a Morris water maze was divided into four quadrants, a platform having a diameter of 12 cm and a height of 35 cm was placed in one of the quadrants, water was added to submerge the platform 1-2 cm, and the pool water was dyed black with carbon ink. After the positioning navigation experiment lasted for 5 days, the platform was removed for a spatial probe experiment, and the time for the mice to reach the original platform position (namely, incubation period) and the number of times they crossed the platform were recorded.
# H9c2 myocardial cells = test: Hypoxia/reoxygenation injury of H9c2 myocardial cells, LDH release; format: cell-based; settings: H9c2, hypoxia 8 h / reoxygenation 12 h; telaprevir 10 μM; vs Hypoxia, FIG. 4
# Procedure: H9c2 myocardial cells were purchased from the Xiangya Cell Bank of Central South University.
# Cell culture method: Following a conventional cell culture method, the above cells were cultured in a DMEM medium (containing 10% of fetal bovine serum). When the cells fused and grew to 80-90%, the cells were digested with a trypsin. After the cells shrank and became round and the intercellular space was obvious, the digestion was immediately terminated with a medium, the cells were dispersed and blown evenly into a single suspension state, passaged in bottles, and cultured in a 37° C. cell incubator containing 5% of CO2. […]
# Cell injury was detected by an LDH release rate.
# The measurement followed the operating instructions of a commercially available lactate dehydrogenase kit (Shanghai Beyotime Biotechnology Co., Ltd., China). […] The absorbance of the sample was measured at 490 nm. Calculation: LDH release rate of cells (%)=(absorbance of the drug treatment group-absorbance of the control group)/(absorbance of the maximum enzyme release group-absorbance of the control group)×100%. When the absorbance value of each group was calculated, the absorbance value of the background blank control group was first subtracted.
structure (smiles),measurement,setting,value
CCC[C@H](NC(=O)[C@@H]1[C@H]2CCC[C@H]2CN1C(=O)[C@@H](NC(=O)[C@@H](NC(=O)c1cnccn1)C1CCCCC1)C(C)(C)C)C(=O)C(=O)NC1CC1 [telaprevir],"time to find the original platform position (incubation period), Morris water maze",[1]; FIG. 6A,significant decrease
same,"number of times they crossed the platform, Morris water maze",[1]; FIG. 6B,significant increase
same,release of LDH in the myocardial cell medium (LDH release rate),H9c2 myocardial cells,significantly reduce
